This is an account of results in US20230167073A1 (Teijin Pharma Limited, priority 2020, published 2023).

For this assay, the target named is T1, Human TRPC6 (Homo sapiens, UniProt Q9Y210).
T1 construct: expressed in transfected cells
T1 sequence (Q9Y210 1-931): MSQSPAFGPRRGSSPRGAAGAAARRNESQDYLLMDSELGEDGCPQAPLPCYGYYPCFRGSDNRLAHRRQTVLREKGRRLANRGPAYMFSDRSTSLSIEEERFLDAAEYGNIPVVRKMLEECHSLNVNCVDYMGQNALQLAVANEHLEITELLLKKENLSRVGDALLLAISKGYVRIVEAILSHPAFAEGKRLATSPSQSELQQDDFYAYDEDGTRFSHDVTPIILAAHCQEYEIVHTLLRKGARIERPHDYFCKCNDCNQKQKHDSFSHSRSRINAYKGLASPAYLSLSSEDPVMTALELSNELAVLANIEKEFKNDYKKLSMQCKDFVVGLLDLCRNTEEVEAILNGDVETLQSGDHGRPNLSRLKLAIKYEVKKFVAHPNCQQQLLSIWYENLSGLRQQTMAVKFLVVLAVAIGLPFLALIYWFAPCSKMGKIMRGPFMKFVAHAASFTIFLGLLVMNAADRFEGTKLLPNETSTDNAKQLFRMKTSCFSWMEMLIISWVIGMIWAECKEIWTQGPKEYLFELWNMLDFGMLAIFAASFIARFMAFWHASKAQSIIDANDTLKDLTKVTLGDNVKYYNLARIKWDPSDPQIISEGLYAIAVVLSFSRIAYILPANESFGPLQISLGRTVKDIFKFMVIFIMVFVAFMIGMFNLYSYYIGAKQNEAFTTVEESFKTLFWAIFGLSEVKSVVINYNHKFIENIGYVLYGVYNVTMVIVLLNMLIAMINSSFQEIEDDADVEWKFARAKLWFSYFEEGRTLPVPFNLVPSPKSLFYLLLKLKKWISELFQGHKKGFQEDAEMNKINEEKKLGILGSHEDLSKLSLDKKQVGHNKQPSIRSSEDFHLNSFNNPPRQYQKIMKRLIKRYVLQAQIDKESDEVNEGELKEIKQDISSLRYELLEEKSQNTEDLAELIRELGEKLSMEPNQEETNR
Briefly: Evaluation of TRPC6 channel inhibitory activity (1), FLIPR Calcium 5 Assay Kit, OAG stimulation (Compound Nos. 1-1293). It is filed as cell-based. The following applies: Human TRPC6 stably-expressing cells, OAG 30 μM, FLIPR Calcium 5 Assay Kit; read-out: Inhibitory activity (pIC50 class) (converted). An outline of the steps:
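Readout is pIC50 from four-parameter logistic fitting of inhibition of the OAG-evoked (30 μM final) fluorescence calcium signal. Human TRPC6 stable cells are dye-loaded with probenecid, and compound is applied 20 min ahead of agonist.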
Consider `Cc1nc(Oc2cc(C#N)ccc2-c2ccc(CCN)cn2)cc(N2CCOCC2)n1` [Compound 85, 4-[5-(2-aminoethyl)pyridin-2-yl]-3-(2-methyl-6-morpholin-4-ylpyrimidin-4-yl)oxybenzonitrile], for which the IC50 was 10 to 1000 nM.

In the case of `NCCc1cnc(-c2ccc(F)cc2Oc2cnn(-c3ccccn3)c2)nc1` [compound 1004, 2-[2-[4-fluoro-2-(1-pyridin-2-ylpyrazol-4-yl)oxyphenyl]pyrimidin-5-yl]ethanamine], the IC50 is 10 to 1000 nM.

Take `Cc1cc(Oc2cc(C#N)ccc2-c2ncc(CCN)cn2)cc(N2CCCC2)n1` [Compound 262, 4-[5-(2-aminoethyl)pyrimidin-2-yl]-3-(2-methyl-6-pyrrolidin-1-ylpyridin-4-yl)oxybenzonitrile]: the IC50 was less than 10 nM.

Turning to `Cn1nc(C2CCCO2)cc1Oc1cc(C#N)ccc1-c1ncc(CCN)cn1` (centres unmarked) [compound 483, 4-[5-(2-aminoethyl)pyrimidin-2-yl]-3-[2-methyl-5-(oxolan-2-yl)pyrazol-3-yl]oxybenzonitrile], the IC50 is less than 10 nM.

As to `Cc1nc(Sc2cc(C#N)ccc2-c2ccc(CCN)cn2)cc(N2CCCCC2)n1` [compound 1249, 4-[5-(2-aminoethyl)pyridin-2-yl]-3-(2-methyl-6-piperidin-1-ylpyrimidin-4-yl)sulfanylbenzonitrile], the IC50 is less than 10 nM.

As to `Cc1nc(N2CCOCC2)cc(C2(c3cc(C#N)ccc3-c3ccc(CCN)cc3)CC2)n1` [Compound No. 1227, 4-[4-(2-Aminoethyl)phenyl]-3-[1-(2-methyl-6-morpholin-4-ylpyrimidin-4-yl)cyclopropyl]benzonitrile], the IC50 is 10 to 1000 nM.

In the case of `N#Cc1ccc(-c2ncc(CCN)cn2)c(C(=O)c2cnn(-c3nccs3)c2)c1` [compound 1048, 4-[5-(2-aminoethyl)pyrimidin-2-yl]-3-[1-(1,3-thiazol-2-yl)pyrazole-4-carbonyl]benzonitrile], the IC50 is less than 10 nM.

As for `Cn1nc(-c2ccccn2)cc1Oc1cc(C#N)ccc1-c1ccc(CCN)nc1` [Compound 162, 4-[6-(2-aminoethyl)pyridin-3-yl]-3-(2-methyl-5-pyridin-2-ylpyrazol-3-yl)oxybenzonitrile], the IC50 was less than 10 nM.

As to `Cn1nc(-c2ccccn2)cc1Cc1cc(C#N)ccc1-c1ncc(CCN)cn1` [compound 1214, 4-[5-(2-aminoethyl)pyrimidin-2-yl]-3-[(2-methyl-5-pyridin-2-ylpyrazol-3-yl)methyl]benzonitrile], the IC50 is less than 10 nM.

For the molecule `Cc1cc(Oc2cc(C#N)ccc2-c2ccc(C(N)C#N)cn2)cc(N2CCOCC2)n1` (centres unmarked) [compound 423, 4-[5-[amino(cyano)methyl]pyridin-2-yl]-3-(2-methyl-6-morpholin-4-ylpyridin-4-yl)oxybenzonitrile], the IC50 was 10 to 1000 nM.

As to `Cn1nc(N2CCOCC2)cc1C(=O)c1cc(F)ccc1-c1ncc(CN)cn1` [compound 1105, [2-[5-(aminomethyl)pyrimidin-2-yl]-5-fluorophenyl]-(2-methyl-5-morpholin-4-ylpyrazol-3-yl)methanone], the IC50 was 10 to 1000 nM.

Consider `Cn1nc(-c2nccs2)cc1Oc1cc(C#N)ccc1-c1ncc(CCN)cn1` [compound 391, 4-[5-(2-aminoethyl)pyrimidin-2-yl]-3-[2-methyl-5-(1,3-thiazol-2-yl)pyrazol-3-yl]oxybenzonitrile], for which the IC50 was less than 10 nM.

For `CN(C)c1cc(Oc2cc(C#N)ccc2-c2ccc([C@H](O)CN)cn2)n(C)n1` [compound 546, 4-[5-[(1S)-2-amino-1-hydroxyethyl]pyridin-2-yl]-3-[5-(dimethylamino)-2-methylpyrazol-3-yl]oxybenzonitrile], the IC50 is 10 to 1000 nM.

Consider `Cn1nc(-c2ccccn2)cc1Oc1cc(C#N)ccc1-c1ccc(C(C)(C)N)cn1` [compound 395, 4-[5-(2-aminopropan-2-yl)pyridin-2-yl]-3-(2-methyl-5-pyridin-2-ylpyrazol-3-yl)oxybenzonitrile], for which the IC50 is 10 to 1000 nM.

Take `Cc1nc(Oc2cc(C#N)ccc2-n2cc([C@H](O)CN)cn2)cc(-c2ccccc2)n1` [Compound 171, 4-[4-[(1S)-2-amino-1-hydroxyethyl]pyrazol-1-yl]-3-(2-methyl-6-phenylpyrimidin-4-yl)oxybenzonitrile]: the IC50 was less than 10 nM.

With `Cc1c(Oc2cc(F)ccc2-c2ncc(CCN)cn2)cnn1-c1ccccn1` [compound 971, 2-[2-[4-fluoro-2-(5-methyl-1-pyridin-2-ylpyrazol-4-yl)oxyphenyl]pyrimidin-5-yl]ethanamine], the IC50 is more than 1000 nM.

Take `Cc1nn(CC(C)C)cc1Oc1cc(C#N)ccc1-c1ncc(CN)cn1` [compound 802, 4-[5-(aminomethyl)pyrimidin-2-yl]-3-[3-methyl-1-(2-methylpropyl)pyrazol-4-yl]oxybenzonitrile]: the IC50 is less than 10 nM.

Take `Cc1nc(Oc2cc(C#N)ccc2-n2cc([C@@H](O)CNC3COC3)cn2)cc(-c2ccccc2)n1` [Compound 244, 4-[4-[(1R)-1-hydroxy-2-(oxetan-3-ylamino)ethyl]pyrazol-1-yl]-3-(2-methyl-6-phenylpyrimidin-4-yl)oxybenzonitrile]: the IC50 is 10 to 1000 nM.

Take `Cn1nc(-c2ccccn2)cc1Cc1cc(C#N)ccc1-c1ncc(CN)cn1` [compound 1205, 4-[5-(aminomethyl)pyrimidin-2-yl]-3-[(2-methyl-5-pyridin-2-ylpyrazol-3-yl)methyl]benzonitrile]: the IC50 was less than 10 nM.

For `Cn1nc(-c2cccnc2)cc1Oc1cc(C#N)ccc1-c1ccc(CCN)nc1` [Compound 178, 4-[6-(2-aminoethyl)pyridin-3-yl]-3-(2-methyl-5-pyridin-3-ylpyrazol-3-yl)oxybenzonitrile], the IC50 is 10 to 1000 nM.

`Cc1nc(Oc2cc(C#N)ccc2-c2ncc(CN)cn2)cc(N2C[C@@H](C)O[C@@H](C)C2)n1` [compound 709, 4-[5-(aminomethyl)pyrimidin-2-yl]-3-[6-[(2R,6S)-2,6-dimethylmorpholin-4-yl]-2-methylpyrimidin-4-yl]oxybenzonitrile]: the IC50 was 10 to 1000 nM.

Regarding `Cn1nc(-c2ccccc2)cc1Oc1cc(C#N)ccc1-c1ncc(CN)cn1` [compound 310, 4-[5-(aminomethyl)pyrimidin-2-yl]-3-(2-methyl-5-phenylpyrazol-3-yl)oxybenzonitrile], the IC50 was less than 10 nM.

In the case of `Cc1nc(C(C)c2cc(C#N)ccc2-c2ccc(CCN)cc2)cc(N2CCOCC2)n1` (centres unmarked) [Compound No. 1226, 4-[4-(2-Aminoethyl)phenyl]-3-[1-(2-methyl-6-morpholin-4-ylpyrimidin-4-yl)ethyl]benzonitrile], the IC50 is 10 to 1000 nM.

In the case of `Cc1cc(Oc2cc(C#N)ccc2-c2ccc([C@H](O)CN)cn2)cc(-c2cnccn2)n1` [compound 693, 4-[5-[(1S)-2-amino-1-hydroxyethyl]pyridin-2-yl]-3-(2-methyl-6-pyrazin-2-ylpyridin-4-yl)oxybenzonitrile], the IC50 was 10 to 1000 nM.

As to `Cn1nc(-c2ccccc2)cc1Oc1cc(C#N)ccc1-n1cc(N2CCNCC2=O)cn1` [Compound 217, 3-(2-methyl-5-phenylpyrazol-3-yl)oxy-4-[4-(2-oxopiperazin-1-yl)pyrazol-1-yl]benzonitrile], the IC50 was more than 1000 nM.

`Cn1nc(C(C)(C)C)cc1Oc1cc(C#N)ccc1-c1ncc([C@H](O)CN)cn1` [compound 406, 4-[5-[(1S)-2-amino-1-hydroxyethyl]pyrimidin-2-yl]-3-(5-tert-butyl-2-methylpyrazol-3-yl)oxybenzonitrile]: the IC50 is less than 10 nM.
